Consider 17 compounds from ChEMBL document CHEMBL4480419, “Design and molecular modeling of novel P38α MAPK inhibitors targeting breast cancer, synthesized from oxygen heterocyclic natural compounds” (Bioorg Med Chem, 2019).

Assay [1] concerns MCF7. The assay can be described thus: Antiproliferative activity against human MCF7 cells after 72 hrs by MTT assay. The assay is classed as functional, cell-based. The note with it: MCF7, 72 h.
Another assay relates to MDA-MB-231. Briefly: Antiproliferative activity against human MDA231 cells after 72 hrs by MTT assay. In kind it is functional, cell-based. The note with it: MDA-MB-231, 72 h.
Another assay has as its target MAP kinase p38 (Homo sapiens, UniProt O15264+Q15759+Q16539+P53778). Briefly: Inhibition of p38alpha MAPK (unknown origin) using ATF-2 as substrate after 1 hr by ELISA. In kind it is protein assay. A general note: An ELISA detects its analyte on a solid surface through an enzyme-linked reagent.
The test system of assay [2] is MCF7. Briefly: Cell cycle arrest in human MCF7 cells assessed as accumulation of cells at G1 phase after 48 hrs by propidium iodide staining-based flow cytometric analysis (reference value: 53.94%). The assay is classed as functional. A general note: In flow cytometry, cells or beads pass a laser one at a time.
Assay [3] has as its system MCF7. The assay can be described thus: Induction of apoptosis in human MCF7 cells assessed as increase in caspase-7 activity by ELISA. The assay is classed as functional, cell-based.
The test system of assay [4] is MCF7. Briefly: Induction of apoptosis in human MCF7 cells assessed as late apoptotic cells after 48 hrs by Annexin V-FITC/propidium iodide staining-based flow cytometric analysis (reference value: 0.52%). The assay is classed as functional.
Assay [5] has as its system MCF7. The assay can be described thus: Cell cycle arrest in human MCF7 cells assessed as accumulation of cells at G2/M phase after 48 hrs by propidium iodide staining-based flow cytometric analysis (reference value: 6.68%). In kind it is functional.
In assay [6] the test system is MCF7. Briefly: Cell cycle arrest in human MCF7 cells assessed as accumulation of cells at S phase after 48 hrs by propidium iodide staining-based flow cytometric analysis (reference value: 39.38%). The assay is classed as functional.
The test system of assay [7] is MCF7. The assay can be described thus: Induction of apoptosis in human MCF7 cells assessed as early apoptotic cells after 48 hrs by Annexin V-FITC/propidium iodide staining-based flow cytometric analysis (reference value: 0.85%). In kind it is functional.
Assay [8] relates to MCF7. The assay can be described thus: Induction of apoptosis in human MCF7 cells assessed as necrotic cells after 48 hrs by Annexin V-FITC/propidium iodide staining-based flow cytometric analysis (reference value: 0.34%). In kind it is functional.
The subject of assay [9] is MCF7. Briefly: Cell cycle arrest in human MCF7 cells assessed as accumulation of cells at preG phase after 48 hrs by propidium iodide staining-based flow cytometric analysis (reference value: 1.71%). In kind it is functional.
In assay [10] the test system is MCF7. The assay can be described thus: Induction of apoptosis in human MCF7 cells assessed as increase in caspase-7 mRNA expression after 48 hrs by RT-PCR analysis. The assay is classed as functional, cell-based.

Active and inactive are the calls of the source. The rule behind the calls is not given here.

What is called IC50 is the concentration that inhibits the measured activity by half. Read a high IC50 as weaker potency. For `Cc1cc(=O)c2c(OCc3nnc(SCCN4CCOCC4)s3)c3ccoc3cc2o1`, the IC50 in the assay with MCF7 [1] was 2.78 µM; in the assay with MDA-MB-231, more than 100 µM.
For `COc1c(C(=O)/C=C/c2ccc(C)o2)c(O)c(CN2CCOCC2)c2occc12`, in that order: more than 100 µM and more than 100 µM.
For `Cc1cc(C)n(C(=O)COc2c3ccoc3cc3oc(C)cc(=O)c23)n1`, in that order: 2.5 µM and more than 100 µM.
As to `COc1c(-c2cc(-c3ccc(C)o3)[nH]c(=O)n2)c(O)c(Br)c2occc12`, the IC50 came to 1.94 µM with MCF7 [1] and 1.23 µM with MDA-MB-231.
As to `COc1c(C(=O)/C=C/c2ccc(C)o2)c(O)c(CN2CCCCC2)c2occc12`, the IC50 with MCF7 [1] and in the assay on MDA-MB-231 was more than 100 µM in each case.
On to `Cc1cc(=O)c2c(OCc3nnc(S)s3)c3ccoc3cc2o1`, for which the IC50 is 1.65 µM in the assay with MCF7 [1] and 7.07 µM in the assay with MDA-MB-231.
As to `COc1c(-c2cc(-c3ccc(C)o3)[nH]c(=S)n2)c(O)c(CN2CCOCC2)c2occc12`, the IC50 in the assay on MCF7 [1] is 7.14 µM; with MDA-MB-231, more than 100 µM.
In the case of `Cc1cc(=O)c2c(OCC(=O)NNC(=S)Nc3ccccc3)c3ccoc3cc2o1`, the IC50 is 2.44 µM in the assay with MCF7 [1] and more than 100 µM in the assay on MDA-MB-231.
For `Cc1cc(=O)c2c(OCc3nnc(S)o3)c3ccoc3cc2o1`, in that order: 13.2 µM and 12.4 µM.
Take `COc1c(-c2cc(-c3ccc(C)o3)[nH]c(=S)n2)c(O)c(CN2CCCCC2)c2occc12`: the IC50 in the assay on MCF7 [1] and with MDA-MB-231 was more than 100 µM in each case.
Turning to `COc1c(C(=O)/C=C/c2ccc(C)o2)c(O)c(CN2CCN(C)CC2)c2occc12`, the IC50 with MCF7 [1] is 4.86 µM; with MDA-MB-231, more than 100 µM.
Regarding `COc1c(-c2cc(-c3ccc(C)o3)[nH]c(=S)n2)c(O)c(CN2CCN(C)CC2)c2occc12`, the values for the IC50 with MCF7 [1] and in the assay on MDA-MB-231 were 5.81 µM and more than 100 µM, respectively.
For the compound `COc1c(C(=O)/C=C/c2ccc(C)o2)c(O)c(Br)c2occc12`, the IC50 in the assay with MCF7 [1] amounted to 1.36 µM; in the assay on MDA-MB-231 it was 2.1 µM; on MAP kinase p38, 0.041 µM.
Consider `COc1c(-c2cc(-c3ccc(C)o3)[nH]c(=S)n2)c(O)c(Br)c2occc12`, for which the IC50 worked out at 1.51 µM with MCF7 [1] and 2 µM in the assay on MDA-MB-231.
For `CS(=O)(=O)CCNCc1ccc(-c2ccc3ncnc(Nc4ccc(OCc5cccc(F)c5)c(Cl)c4)c3c2)o1` [LAPATINIB], the IC50 in the assay with MCF7 [1] and with MDA-MB-231 was 4.69 µM each time.
Consider `COc1c(-c2cc(-c3ccc(C)o3)c(C#N)c(N)n2)c(O)c(Br)c2occc12`, for which the Activity in the assay with MCF7 [2] came to 41.56%; in the assay on MCF7 [4], 9.2%; in the assay with MCF7 [5], 23.63%; with MCF7 [6], 34.81%; with MCF7 [7], 5.36%; with MCF7 [8] it was 2.13%. The Activity with MCF7 [9] stood at 16.69%. In addition, the outcome in the assay with MCF7 [3] and in the assay on MCF7 [10] was Active. Besides, the IC50 in the assay on MCF7 [1] was 1.19 µM; in the assay with MDA-MB-231, 2.65 µM; on MAP kinase p38, 0.04 µM.
For the compound `Cc1cc(=O)c2c(OCc3nnc(SCCN4CCOCC4)o3)c3ccoc3cc2o1`, the IC50 in the assay on MCF7 [1] turned out to be 3.82 µM; with MDA-MB-231, 8.74 µM.
